Experimental data taken from patent publication US20050101595A1, “N-containing cycloalkyl-substituted amino-thiazole derivatives and pharmaceutical compositions for inhibiting cell proliferation and methods for their use” (PFIZER INC., priority 2003, published 2005).
Structures can show the parent of a compound that is named as a salt. Where two headings read alike, the source gives them in different places.

Tests used:
[1] = test system: HCT-116 cell line; test: Inhibition of cell growth, tetrazolium salt (MTT) assay; format: cell-based; details: for HCT-116 % Inhibition at 0.25 μM: 0.25 μM compound; for IC50: Homo sapiens, HCT-116, 120 h, MTT, three to five days, read-out: HCT-116 IC50
In short: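 MTT colorimetric viability: three-to-five-day compound exposure in 0.5% (v/v) DMSO at 37° C, MTT 0.2 mg/mL for the last 4 h, A540 compared with vehicle-treated cells.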

[2] = target: human CDK4 and genetically truncated (1-264) cyclin D3 (Homo sapiens, UniProt P11802); test: Inhibition of CDK4/Cyclin D Retinoblastoma Kinase Activity; format: biochemical; details: for Ki: apparent Ki, CDK4/truncated cyclin D3, Rb fragment substrate, 25 μM ATP
In short: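 Read-out: 32P/33P incorporation into Rb fragment (386-928) captured on nitrocellulose, phosphorimager. Enzyme 5 nM CDK4/cyclin D3(1-264) from insect cells; ATP 25 μM, pH 7.4, 30 °C, 20 min (60 min for tight binders). Ki from competitive fits.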

[3] = target: CDK2/Cyclin A (Homo sapiens, UniProt P24941); test: Inhibition of CDK2/Cyclin A Retinoblastoma Kinase Activity; format: biochemical; details: for CDK2 % Inhibition At 0.03 μM: Table 2; for Ki: apparent Ki, CDK2/proteolyzed cyclin A, Rb fragment substrate, 25 μM ATP
In short: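 Human CDK2, baculovirus/insect-cell expressed, complexed with proteolyzed cyclin A (10 nM or 19 nM CDK2) phosphorylates an Rb fragment with 25 μM [32P/33P]ATP at pH 7.4, 30° C, for 60 or 75 minutes under initial-rate conditions. Filter-captured radioactivity is read by phosphorimager; apparent Ki from competitive-inhibition fits.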

[4] = 0.1 μM compound, HCT-116, Table 3

Chain of human CDK4 and genetically truncated (1-264) cyclin D3 (P11802 whole entry, the tested form may be a part): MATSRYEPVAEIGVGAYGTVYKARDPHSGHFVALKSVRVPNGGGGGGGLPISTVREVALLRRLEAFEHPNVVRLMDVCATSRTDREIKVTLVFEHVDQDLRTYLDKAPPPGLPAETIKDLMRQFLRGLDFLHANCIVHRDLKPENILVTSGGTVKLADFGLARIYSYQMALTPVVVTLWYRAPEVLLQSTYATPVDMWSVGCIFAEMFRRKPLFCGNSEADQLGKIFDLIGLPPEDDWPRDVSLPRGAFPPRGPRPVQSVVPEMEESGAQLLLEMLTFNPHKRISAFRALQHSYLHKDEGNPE
Chain of human CDK4 and genetically truncated (1-264) cyclin D3 (P30281 1-264 partner): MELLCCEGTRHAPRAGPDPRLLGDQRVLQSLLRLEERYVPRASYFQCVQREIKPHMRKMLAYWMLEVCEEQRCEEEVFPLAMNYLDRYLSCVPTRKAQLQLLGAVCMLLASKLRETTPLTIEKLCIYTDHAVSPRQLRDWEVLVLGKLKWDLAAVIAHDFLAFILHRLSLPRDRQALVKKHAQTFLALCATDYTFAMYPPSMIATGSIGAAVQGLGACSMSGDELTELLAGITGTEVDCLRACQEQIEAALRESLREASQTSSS

Nc1nc(NC2CCN(C(=O)c3ccccc3[N+](=O)[O-])CC2)sc1C(=O)c1c(F)cccc1F [Example Q68]
HCT-116 % Inhibition at 0.1 μM ([1]; 0.1 μM compound, HCT-116, Table 4): 4%
HCT-116 % Inhibition at 0.25 μM ([1]; HCT-116, Table 4): 33%
CDK4 % Inhibition at 0.03 μM ([2]; 0.03 μM compound, Table 4): 51%
CDK2 % Inhibition at 0.03 μM ([3]; 0.03 μM compound, Table 4): 41%

CCOC(=O)C(CCSC)NC(=O)N1CCC(Nc2nc(N)c(C(=O)c3c(F)cccc3F)s2)CC1 (stereo not drawn) [Example O71]
HCT-116 % Inhibition at 0.25 μM ([1]; HCT-116, Table 2): 51%
CDK4 % Inhibition at 0.03 μM ([2]; 0.03 μM compound, Table 2): 7%
CDK2 % Inhibition At 0.03 μM ([3]; 0.03 μM compound): 30%

Nc1nc(NC2CCN(S(=O)(=O)c3cccc4nsnc34)CC2)sc1C(=O)c1c(F)cccc1F [Example P62]
HCT-116 % Inhibition at 0.1 μM [1, 4]: 22%
HCT-116 % Inhibition at 0.25 μM ([1]; HCT-116, Table 3): 26%
CDK4 % Inhibition at 0.03 μM ([2]; 0.03 μM compound, Table 3): 70%
CDK2 % Inhibition at 0.03 μM ([3]; 0.03 μM compound, Table 3): 74%

Nc1nc(NC2CCN(S(=O)(=O)Cc3ccccc3)CC2)sc1C(=O)c1c(F)cccc1F [Example F4, 1-[4-Amino-2-(1-phenylmethanesulfonyl-piperidin-4-ylamino)-thiazol-5-yl]-1-(2,6-difluoro-phenyl)-methanone]
IC50 ([1]; first HCT-116 column (c4)): 260 nM
IC50 ([1]; second HCT-116 column (c5)): 590 nM
Ki [2]: 2.8 nM
Ki [3]: 4.1 nM

Nc1nc(NC2CCN(S(=O)(=O)c3ccc(C(=O)O)cc3)CC2)sc1C(=O)c1c(F)cccc1F [Example P21]
HCT-116 % Inhibition at 0.1 μM [1, 4]: 19%
HCT-116 % Inhibition at 0.25 μM ([1]; HCT-116, Table 3): 29%
CDK4 % Inhibition at 0.03 μM ([2]; 0.03 μM compound, Table 3): 32%
CDK2 % Inhibition at 0.03 μM ([3]; 0.03 μM compound, Table 3): 23%

Nc1nc(NC2CCN(S(=O)(=O)c3ccc(SCCN4CCOCC4)nc3)CC2)sc1C(=O)c1c(F)cccc1F [Example L7, 1-(4-Amino-2-{1-[6-(2-morpholin-4-yl-ethylsulfanyl)-pyridine-3-sulfonyl]-piperidin-4-ylamino}-thiazol-5-yl)-1-(2,6-difluoro-phenyl)-methanone Dihydrochloride.]
IC50 ([1]; first HCT-116 column (c4)): 95 nM
IC50 ([1]; second HCT-116 column (c5)): 300 nM
Ki [2]: 2.2 nM
Ki [3]: 1.5 nM

Nc1nc(NC2CCN(S(=O)(=O)c3ccc(CCCN4CCCCC4)nc3)CC2)sc1C(=O)c1c(F)cccc1F [Example I14, 1-(4-Amino-2-{1-[6-(3-piperidin-1-yl-propyl)-pyridine-3-sulfonyl]-piperidin-4-ylamino}-thiazol-5-yl)-1-(2,6-difluoro-phenyl)-methanone Trifluoroacetic Acid Salt]
IC50 ([1]; first HCT-116 column (c4)): 140 nM
IC50 ([1]; second HCT-116 column (c5)): 300 nM
Ki [2]: 0.57 nM
Ki [3]: 1.2 nM

C[C@@H]1CN(c2ccc(S(=O)(=O)N3CCC(Nc4nc(N)c(C(=O)c5c(F)cccc5F)s4)CC3)cn2)C[C@H](C)N1 [Example G15, 1-(4-Amino-2-{1-[6-(3,5-dimethyl-piperizin-1-yl)-pyridin-3-sulfonyl]-piperidin-4-ylamino}-thiazol-5-yl)-1-(2,6-difluoro-phenyl)-methanone Trifluoroacetic Acid Salt]
IC50 ([1]; first HCT-116 column (c4)): 79 nM
IC50 ([1]; second HCT-116 column (c5)): > 500 nM
Ki [2]: 0.28 nM
Ki [3]: 0.73 nM

CCOC(=O)C(NC(=O)N1CCC(Nc2nc(N)c(C(=O)c3c(F)cccc3F)s2)CC1)C(C)C (stereo not drawn) [Example O74]
HCT-116 % Inhibition at 0.25 μM ([1]; HCT-116, Table 2): 34%
CDK4 % Inhibition at 0.03 μM ([2]; 0.03 μM compound, Table 2): 102%
CDK2 % Inhibition At 0.03 μM ([3]; 0.03 μM compound): 35%

Nc1nc(NC2CCN(S(=O)(=O)c3ccc4ccccc4c3)CC2)sc1C(=O)c1c(F)cccc1F [Example P3]
HCT-116 % Inhibition at 0.1 μM [1, 4]: 17%
HCT-116 % Inhibition at 0.25 μM ([1]; HCT-116, Table 3): 23%
CDK4 % Inhibition at 0.03 μM ([2]; 0.03 μM compound, Table 3): 65%
CDK2 % Inhibition at 0.03 μM ([3]; 0.03 μM compound, Table 3): 64%

CC(Oc1ccccc1)C(=O)N1CCC(Nc2nc(N)c(C(=O)c3c(F)cccc3F)s2)CC1 (stereo not drawn) [Example R9]
HCT-116 % Inhibition at 0.1 μM ([1]; HCT-116 cells, at 0.1 μM): 5%
HCT-116 5 Inhibition at 0.25 μM ([1]; HCT-116 cells): 37
CDK4 % Inhibition at 0.03 μM ([2]; at 0.03 μM): 19%
CDK2 % Inhibition at 0.03 μM ([3]; at 0.03 μM): −15%

COc1ccc(Oc2ccc([N+](=O)[O-])cc2C(=O)N2CCC(Nc3nc(N)c(C(=O)c4c(F)cccc4F)s3)CC2)cc1 [Example R40]
HCT-116 % Inhibition at 0.1 μM ([1]; HCT-116 cells, at 0.1 μM): 0%
HCT-116 5 Inhibition at 0.25 μM ([1]; HCT-116 cells): 43
CDK4 % Inhibition at 0.03 μM ([2]; at 0.03 μM): 66%
CDK2 % Inhibition at 0.03 μM ([3]; at 0.03 μM): 41%

CC(C)(C)c1ccc(C(=O)N2CCC(Nc3nc(N)c(C(=O)c4c(F)cccc4F)s3)CC2)cc1 [Example R153]
HCT-116 % Inhibition at 0.1 μM ([1]; HCT-116 cells, at 0.1 μM): 0%
HCT-116 5 Inhibition at 0.25 μM ([1]; HCT-116 cells): 44
CDK4 % Inhibition at 0.03 μM ([2]; at 0.03 μM): 58%
CDK2 % Inhibition at 0.03 μM ([3]; at 0.03 μM): 37%

Nc1nc(NC2CCN(C(=O)c3c(Cl)cc(Cl)cc3Cl)CC2)sc1C(=O)c1c(F)cccc1F [Example R56]
HCT-116 % Inhibition at 0.1 μM ([1]; HCT-116 cells, at 0.1 μM): 0%
HCT-116 5 Inhibition at 0.25 μM ([1]; HCT-116 cells): 43
CDK4 % Inhibition at 0.03 μM ([2]; at 0.03 μM): 8%
CDK2 % Inhibition at 0.03 μM ([3]; at 0.03 μM): 14%

COc1ccc(S(=O)(=O)N2CCC(Nc3nc(N)c(C(=O)c4c(F)cccc4F)s3)CC2)cc1OC [Example P38]
HCT-116 % Inhibition at 0.1 μM [1, 4]: 15%
HCT-116 % Inhibition at 0.25 μM ([1]; HCT-116, Table 3): 35%
CDK4 % Inhibition at 0.03 μM ([2]; 0.03 μM compound, Table 3): 74%
CDK2 % Inhibition at 0.03 μM ([3]; 0.03 μM compound, Table 3): 73%

CN(CCS(=O)(=O)N1CCC(Nc2nc(N)c(C(=O)c3c(F)cccc3F)s2)CC1)Cc1ccccc1 [Example K39, (4-Amino-2-{1-[2-(benzyl-methyl-amino)-ethanesulfonyl]-piperidin-4-ylamino}-thiazol-5-yl)-(2,6-difluoro-phenyl)-methanone]
IC50 ([1]; first HCT-116 column (c4)): 44 nM
IC50 ([1]; second HCT-116 column (c5)): 170 nM
Ki [2]: 1.8 nM
Ki [3]: 1.4 nM

Nc1nc(NC2CCN(C(=O)c3ccno3)CC2)sc1C(=O)c1c(F)cccc1F [Example R46]
HCT-116 % Inhibition at 0.1 μM ([1]; HCT-116 cells, at 0.1 μM): 0.47%
HCT-116 5 Inhibition at 0.25 μM ([1]; HCT-116 cells): 37
CDK4 % Inhibition at 0.03 μM ([2]; at 0.03 μM): 83%
CDK2 % Inhibition at 0.03 μM ([3]; at 0.03 μM): 71%

CNc1ccccc1C(=O)N1CCC(Nc2nc(N)c(C(=O)c3c(F)cccc3F)s2)CC1 [Example R112]
HCT-116 % Inhibition at 0.1 μM ([1]; HCT-116 cells, at 0.1 μM): 39%
HCT-116 5 Inhibition at 0.25 μM ([1]; HCT-116 cells): 93
CDK4 % Inhibition at 0.03 μM ([2]; at 0.03 μM): 21%
CDK2 % Inhibition at 0.03 μM ([3]; at 0.03 μM): 12%

CC(C)=CCCC(C)CC(=O)N1CCC(Nc2nc(N)c(C(=O)c3c(F)cccc3F)s2)CC1 (stereo not drawn) [Example R170]
HCT-116 % Inhibition at 0.1 μM ([1]; HCT-116 cells, at 0.1 μM): 0%
HCT-116 5 Inhibition at 0.25 μM ([1]; HCT-116 cells): 23
CDK4 % Inhibition at 0.03 μM ([2]; at 0.03 μM): 22%
CDK2 % Inhibition at 0.03 μM ([3]; at 0.03 μM): 21%

CSc1ccc(C(=O)N2CCC(Nc3nc(N)c(C(=O)c4c(F)cccc4F)s3)CC2)cc1 [Example R150]
HCT-116 % Inhibition at 0.1 μM ([1]; HCT-116 cells, at 0.1 μM): 2%
HCT-116 5 Inhibition at 0.25 μM ([1]; HCT-116 cells): 39
CDK4 % Inhibition at 0.03 μM ([2]; at 0.03 μM): 62%
CDK2 % Inhibition at 0.03 μM ([3]; at 0.03 μM): 40%

Nc1nc(NC2CCN(S(=O)(=O)CCCN3CCC4CCCCC4C3)CC2)sc1C(=O)c1c(F)cccc1F (mixture of isomers) [Example K10, 1-(4-Amino-2-{1-[3-([cis/trans]-octahydro-1H-isoquinolin-2-yl)propane-1-sulfonyl]-piperidin-4-ylamino}-thiazol-5-yl)-1-(2,6-difluoro-phenyl)-methanone.]
IC50 ([1]; first HCT-116 column (c4)): 190 nM
IC50 ([1]; second HCT-116 column (c5)): 1300 nM
Ki [2]: 1.1 nM
Ki [3]: 2.6 nM

CC(NC(=O)N1CCC(Nc2nc(N)c(C(=O)c3c(F)cccc3F)s2)CC1)c1ccccc1 (stereo not drawn) [Example O28]
HCT-116 % Inhibition at 0.25 μM ([1]; HCT-116, Table 2, 0.25 µM): 43%
CDK4 % Inhibition at 0.03 μM ([2]; 0.03 μM compound, Table 2, 0.03 µM): 12%
CDK2 % Inhibition At 0.03 μM ([3]; 0.03 μM compound, 0.03 µM): 27%

Nc1nc(NC2CCN(S(=O)(=O)c3cccc4ccccc34)CC2)sc1C(=O)c1c(F)cccc1F [Example P1]
HCT-116 % Inhibition at 0.1 μM [1, 4]: 9%
HCT-116 % Inhibition at 0.25 μM ([1]; HCT-116, Table 3): 32%
CDK4 % Inhibition at 0.03 μM ([2]; 0.03 μM compound, Table 3): 51%
CDK2 % Inhibition at 0.03 μM ([3]; 0.03 μM compound, Table 3): 45%

CN(C)CCN(C)c1ccc(S(=O)(=O)N2CCC(Nc3nc(N)c(C(=O)c4c(F)cccc4F)s3)CC2)cn1 [Example G1, Trifluoroacetic Acid Salt]
IC50 ([1]; first HCT-116 column (c4)): 120 nM
IC50 ([1]; second HCT-116 column (c5)): > 500 nM
Ki [2]: 0.64 nM
Ki [3]: 1.4 nM
